The source of these data is patent US20240043439A1, “COMPOUNDS AS C5AR INHIBITORS” (Kira Pharmaceuticals (Suzhou) Ltd., priority 2020, published 2024).

For assay [1], the target named is human C5a receptor (C5aR) (Homo sapiens (Human), UniProt P21730). Nature of the assay: Inhibition of C5a-C5aR binding (biotinylated human C5a, U937/C5aR cells, FACS). An outline of the steps:
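U937 cells stably expressing human C5aR, 3×10^6 cells/ml in PBS+0.1% BSA, were co-incubated with compound and biotinylated human C5a (30 nM, working solution) on ice for 120 min. Bound ligand was stained with FITC-streptavidin for 30 min on ice and read by flow cytometry.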

Assay [2] has as its target T1, C5aR (Homo sapiens (Human), UniProt P21730). As to the kind of experiment: Inhibition of C5a-C5aR binding determined by cell migration assay (U937/C5aR cells). In kind it is cell-based. As to conditions: U937/C5aR cell migration towards human C5a, 180 min. How it is done: Migration assay was performed by using polycarbonate membrane with 3.0 µm pore (Corning). U937/C5aR cells were collected and washed twice by PBS; cells were suspended in Hank's balanced salt solution (HBSS)+1% FBS buffer at the density of 6×10^6 cells/ml. Cells were premixed with compound and added to insert well, ligand human C5a and compound were added to bottom well in order, gently mix, incubate for 30 min at 37° C., […]. Put insert plate into bottom well, migrate for 180 min at 37° C., […]. Gently remove the insert well, add 50 μl CellTiter-Glo (Promega), gently shaking for 5 min at room temperature, transfer 150 μl mixture to black plate and read luminescence intensity by
microplate reader (BioTek).

Assay [3] has as its target T1, C5aR. Nature of the assay: Calcium mobilization (U937/C5aR or HEK293/C5aR cells, FLIPR). In kind it is cell-based. The note with it: agonist human C5a at EC80, FLIPR. An outline of the steps:
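U937 or HEK293 cells expressing human C5aR, plated overnight, then preincubated 60 min with compound. After Fluo-4 Direct dye loading (50 min at 37 °C, 10 min at room temperature), intracellular calcium rise on FLIPR was triggered by human C5a agonist at EC80.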

A word on the IC50: it is the midpoint of a concentration-inhibition curve.

T1 sequence (P21730 whole entry): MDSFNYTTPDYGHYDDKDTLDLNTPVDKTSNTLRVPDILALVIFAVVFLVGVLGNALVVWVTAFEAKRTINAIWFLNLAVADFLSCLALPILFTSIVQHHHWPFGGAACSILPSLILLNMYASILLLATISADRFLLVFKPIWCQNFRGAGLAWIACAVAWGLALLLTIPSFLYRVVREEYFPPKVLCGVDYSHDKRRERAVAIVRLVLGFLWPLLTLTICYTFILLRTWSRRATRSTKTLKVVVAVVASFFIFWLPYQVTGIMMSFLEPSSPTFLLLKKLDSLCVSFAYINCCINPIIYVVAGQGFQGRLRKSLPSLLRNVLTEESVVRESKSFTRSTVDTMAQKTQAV
Sequence of human C5a receptor (C5aR) (P21730 whole entry): as above

For `Cc1cccc(F)c1C(=O)N1C(c2ccc(NC3CCCC3)cc2)C(C(=O)Nc2cnc3cnn(C)c3c2)C[C@@H]2COC[C@@H]21` (relative stereo) [Compound 189, cis-2-(4-(cyclopentylamino)phenyl)-1-(2-fluoro-6-methylbenzoyl)-N-(1-methyl-1H-pyrazolo[4,3-b]pyridin-6-yl)octahydrofuro[3,4-b]pyridine-3-carboxamide], the IC50 in assay [1] fell in the range of 50 to 500 nM; in assay [2], 50 to 500 nM; in assay [3], 2000 to 10000 nM.

For the compound `Cc1ccc(NC(=O)[C@H]2CCCN(c3ncnc4ccccc34)[C@H]2c2ccc(NC3CCCC3)cc2)cc1C(F)(F)F` [Compound 5, (2R,3S)-2-(4-(cyclopentylamino)phenyl)-N-(4-methyl-3-(trifluoromethyl)phenyl)-1-(quinazolin-4-yl)piperidine-3-carboxamide], the IC50 is 50 to 500 nM in assay [1], 50 to 500 nM in assay [2] and 2000 to 10000 nM in assay [3].

For the compound `Cc1ccc(NC(=O)[C@H]2CCC3CCc4ccccc4C(=O)N3[C@H]2c2ccc(NC3CCCC3)cc2)cc1C(F)(F)F` (stereo partly drawn) [Compound 44, (3S,4R)-4-(4-(cyclopentylamino)phenyl)-N-(4-methyl-3-(trifluoromethyl)phenyl)-6-oxo-1,2,3,4,6,11,12,12a-octahydrobenzo[e]pyrido[1,2-a]azepine-3-carboxamide], the values for the IC50 in assay [1], in assay [2] and in assay [3] were 50 to 500 nM, less than 50 nM and 500 to 2000 nM, respectively.

Consider `Cc1cccc(F)c1C(=O)N1[C@@H]2CCC[C@@H]2C[C@H](C(=O)Nc2ccc(N(C)C)cc2)[C@@H]1c1ccc(NC2CCCC2)cc1` [Compound 51, (2R,3S,4aR,7aR)-2-(4-(cyclopentylamino)phenyl)-N-(4-(dimethylamino)phenyl)-1-(2-fluoro-6-methylbenzoyl)octahydro-1H-cyclopenta[b]pyridine-3-carboxamide], for which the IC50 was less than 50 nM in assay [1], less than 50 nM in assay [2] and 500 to 2000 nM in assay [3].

Regarding `Cc1cccc(F)c1C(=O)N1[C@@H]2CCC[C@@H]2C[C@H](C(=O)Nc2cnn(C)c2)[C@@H]1c1ccc(NC2CCCC2)cc1` [Compound 54, (2R,3S,4aR,7aR)-2-(4-(cyclopentylamino)phenyl)-1-(2-fluoro-6-methylbenzoyl)-N-(1-methyl-1H-pyrazol-4-yl)octahydro-1H-cyclopenta[b]pyridine-3-carboxamide], the IC50 in assay [1] is 50 to 500 nM; in assay [2], 50 to 500 nM; in assay [3] it was 2000 to 10000 nM.

For `Cc1cccc(F)c1C(=O)N1[C@@H]2CCC[C@@H]2C[C@H](C(=O)Nc2ccc(N(C)C)cc2)[C@@H]1c1ccc(NC2CCOCC2)cc1` [Compound 94, (2R,3S,4aR,7aR)-N-(4-(dimethylamino)phenyl)-1-(2-fluoro-6-methylbenzoyl)-2-(4-((tetrahydro-2H-pyran-4-yl)amino)phenyl)octahydro-1H-cyclopenta[b]pyridine-3-carboxamide], the IC50 in assay [1] is less than 50 nM; in assay [2], 50 to 500 nM; in assay [3], 2000 to 10000 nM.

With `Cc1cccc(F)c1C(=O)N1[C@@H]2CCC[C@@H]2C[C@H](C(=O)Nc2ccc3[nH]ncc3c2)[C@@H]1c1ccc(NC2CCOCC2)cc1` [Compound 96, (2R,3S,4aR,7aR)-1-(2-fluoro-6-methylbenzoyl)-N-(1H-indazol-5-yl)-2-(4-((tetrahydro-2H-pyran-4-yl)amino)phenyl)octahydro-1H-cyclopenta[b]pyridine-3-carboxamide], the results for the IC50 in assay [1], in assay [2] and in assay [3] were less than 50 nM, 50 to 500 nM and 2000 to 10000 nM, respectively.

For the compound `Cc1cccc(F)c1C(=O)N1[C@@H]2CCC[C@@H]2C[C@H](C(=O)Nc2ccc3c(ccn3C)c2)[C@@H]1c1ccc(NC2CCOCC2)cc1` [Compound 98, (2R,3S,4aR,7aR)-1-(2-fluoro-6-methylbenzoyl)-N-(1-methyl-1H-indol-5-yl)-2-(4-((tetrahydro-2H-pyran-4-yl)amino)phenyl)octahydro-1H-cyclopenta[b]pyridine-3-carboxamide], the IC50 was less than 50 nM in assay [1], less than 50 nM in assay [2] and 500 to 2000 nM in assay [3].

Take `Cc1ccc(NC(=O)[C@H]2C[C@H]3COC[C@H]3N(C(=O)c3c(C)cccc3F)[C@H]2c2ccc(NC3CCCC3)cc2)cc1C(F)(F)F` [Compound 119, (2R,3S,4aR,7aS)-2-(4-(cyclopentylamino)phenyl)-1-(2-fluoro-6-methylbenzoyl)-N-(4-methyl-3-(trifluoromethyl)phenyl)octahydrofuro[3,4-b]pyridine-3-carboxamide]: the values for the IC50 in assay [1], in assay [2] and in assay [3] were less than 50 nM, less than 50 nM and 50 to 500 nM, respectively.

Take `Cc1cccc(F)c1C(=O)N1[C@@H]2COC[C@@H]2C[C@H](C(=O)Nc2ccc(N(C)C)cc2)[C@@H]1c1ccc(NC2CCCC2)cc1` [Compound 124, (2R,3S,4aR,7aS)-2-(4-(cyclopentylamino)phenyl)-N-(4-(dimethylamino)phenyl)-1-(2-fluoro-6-methylbenzoyl)octahydrofuro[3,4-b]pyridine-3-carboxamide]: the results for the concentration for half-maximal inhibition (IC50) in assay [1], in assay [2] and in assay [3] were 50 to 500 nM, 50 to 500 nM and 2000 to 10000 nM, respectively.

Consider `Cc1cccc(F)c1C(=O)N1[C@@H]2COC[C@@H]2C[C@H](C(=O)Nc2ccc3c(cnn3C)c2)[C@@H]1c1ccc(NC2CCCC2)cc1` [Compound 126, (2R,3S,4aR,7aS)-2-(4-(cyclopentylamino)phenyl)-1-(2-fluoro-6-methylbenzoyl)-N-(1-methyl-1H-indazol-5-yl)octahydrofuro[3,4-b]pyridine-3-carboxamide], for which the values for the IC50 in assay [1], in assay [2] and in assay [3] were less than 50 nM, less than 50 nM and 2000 to 10000 nM, respectively.

Take `Cc1cccc(F)c1C(=O)N1[C@@H]2COC[C@@H]2C[C@H](C(=O)Nc2ccc3[nH]ncc3c2)[C@@H]1c1ccc(NC2CCCC2)cc1` [Compound 138, (2R,3S,4aR,7aS)-2-(4-(cyclopentylamino)phenyl)-1-(2-fluoro-6-methylbenzoyl)-N-(1H-indazol-5-yl)octahydrofuro[3,4-b]pyridine-3-carboxamide]: the IC50 in assay [1] lay within 50 to 500 nM; in assay [2] it was 500 to 2000 nM; in assay [3], 2000 to 10000 nM.

In the case of `Cc1cccc(F)c1C(=O)N1[C@@H]2COC[C@@H]2C[C@H](C(=O)Nc2ccc3c(ccn3C)c2)[C@@H]1c1ccc(NC2CCCC2)cc1` [Compound 139, (2R,3S,4aR,7aS)-2-(4-(cyclopentylamino)phenyl)-1-(2-fluoro-6-methylbenzoyl)-N-(1-methyl-1H-indol-5-yl)octahydrofuro[3,4-b]pyridine-3-carboxamide], the values for the IC50 in assay [1], in assay [2] and in assay [3] were less than 50 nM, 50 to 500 nM and 2000 to 10000 nM, respectively.

As for `Cc1ccc(NC(=O)[C@H]2CCCN(c3ncnc4cnccc34)[C@H]2c2ccc(NC3CCCC3)cc2)cc1C(F)(F)F` [Compound 162, (2R,3S)-2-(4-(cyclopentylamino)phenyl)-N-(4-methyl-3-(trifluoromethyl)phenyl)-1-(pyrido[3,4-d]pyrimidin-4-yl)piperidine-3-carboxamide], the IC50 was in the range of 50 to 500 nM in assay [1], 500 to 2000 nM in assay [2] and 2000 to 10000 nM in assay [3].

`Cc1cccc(F)c1C(=O)N1CCC[C@H](c2nc3ccc(C(C)(C)C)cc3[nH]2)[C@@H]1c1ccc(NC2CCCC2)cc1` [Compound 180, ((2R,3S)-3-(6-(tert-butyl)-1H-benzo[d]imidazol-2-yl)-2-(4-(cyclopentylamino)phenyl)piperidin-1-yl)(2-fluoro-6-methylphenyl)methanone]: the IC50 in assay [1] is 2000 to 5000 nM; in assay [2], less than 50 nM; in assay [3], 2000 to 10000 nM.
